According to US4684664A, “Derivatives of β-(4-isocyano-1,2,3,4-diepoxycyclopentyl) acrylic acid” (Kureha Kagaku Kogyo Kabushiki Kaisha, priority 1984, dated 1987):
≈ marks a conversion by molar mass, not a printed value.

Legend:
Format in all cases: cell-based
[1] = tested on: Staphylococcus aureus FDA 209PJc-1; experiment: Antibacterial activity, agar-dilution MIC, organism No. 1; details: Staphylococcus aureus, FDA209PJC1; Organism No. 1, bouillon-agar; read-out: Minimum Inhibitory Concentration
Text: (§1) Agar-dilution method was used for determination of the antibacterial activity and antifungal activity while using bouillon-agar culture medium, and the minimum inhibitory concentration of the specimen was expressed by μg/ml of the culture medium.

[2] = tested on: Staphylococcus aureus Terajima; experiment: Antibacterial activity, agar-dilution MIC, organism No. 2; details: Staphylococcus aureus; Organism No. 2, bouillon-agar; read-out: Minimum Inhibitory Concentration
Text: as §1

[3] = tested on: Staphylococcus aureus MS 353; experiment: Antibacterial activity, agar-dilution MIC, organism No. 3; details: Staphylococcus aureus, MS353; Organism No. 3, bouillon-agar; read-out: Minimum Inhibitory Concentration
Text: as §1

[4] = tested on: Streptococcus pyogenes Cook; experiment: Antibacterial activity, agar-dilution MIC, organism No. 4; details: Streptococcus pyogenes; Organism No. 4, bouillon-agar; read-out: Minimum Inhibitory Concentration
Text: as §1

[5] = tested on: Escherichia coli NIHJ-JC-2; experiment: Antibacterial activity, agar-dilution MIC, organism No. 5; details: Escherichia coli, NIHJJC2; Organism No. 5, bouillon-agar; read-out: Minimum Inhibitory Concentration
Text: as §1

[6] = tested on: Escherichia coli K12 C600 IAM 1264; experiment: Antibacterial activity, agar-dilution MIC, organism No. 6; details: Escherichia coli, IAM1264; Organism No. 6, bouillon-agar; read-out: Minimum Inhibitory Concentration
Text: as §1

[7] = tested on: Klebsiella pneumoniae PCI-602; experiment: Antibacterial activity, agar-dilution MIC, organism No. 7; details: Klebsiella pneumoniae, PCI602; Organism No. 7, bouillon-agar; read-out: Minimum Inhibitory Concentration
Text: as §1

[8] = tested on: Salmonella typhimurium IID 971; experiment: Antibacterial activity, agar-dilution MIC, organism No. 8; details: Salmonella enterica; Organism No. 8, bouillon-agar; read-out: Minimum Inhibitory Concentration
Text: as §1

Salmonella typhi 901 = experiment: Antibacterial activity, agar-dilution MIC, organism No. 9; details: Salmonella enterica, TYPHI, read-out: Minimum Inhibitory Concentration
Text: as §1

[9] = tested on: Salmonella paratyphi-A 1015; experiment: Antibacterial activity, agar-dilution MIC, organism No. 10; details: Salmonella enterica, PARATYPHI, read-out: Minimum Inhibitory Concentration
Text: as §1

[10] = tested on: Salmonella shottmuelleri 8006; experiment: Antibacterial activity, agar-dilution MIC, organism No. 11; details: Salmonella, 8006; Organism No. 11, bouillon-agar; read-out: Minimum Inhibitory Concentration
Text: as §1

[11] = tested on: Salmonella enteritidis G 14; experiment: Antibacterial activity, agar-dilution MIC, organism No. 12; details: Salmonella enterica, ENTERITIDIS; Organism No. 12, bouillon-agar; read-out: Minimum Inhibitory Concentration
Text: as §1

[12] = tested on: Bacillus subtilis ATCC 6633; experiment: Antibacterial activity, agar-dilution MIC, organism No. 14; details: Bacillus subtilis, ATCC6633; Organism No. 14, bouillon-agar; read-out: Minimum Inhibitory Concentration
Text: as §1

[13] = tested on: Pseudomonas aeruginosa IFO 3445; experiment: Antibacterial activity, agar-dilution MIC, organism No. 15; details: Pseudomonas aeruginosa, IFO3445; Organism No. 15, bouillon-agar; read-out: Minimum Inhibitory Concentration
Text: as §1

[14] = tested on: Pseudomonas aeruginosa NCTC 10490; experiment: Antibacterial activity, agar-dilution MIC, organism No. 16; details: Pseudomonas aeruginosa, NCTC10490; Organism No. 16, bouillon-agar; read-out: Minimum Inhibitory Concentration
Text: as §1

[15] = tested on: Pseudomonas aeruginosa PAO 1; experiment: Antibacterial activity, agar-dilution MIC, organism No. 17; details: Pseudomonas aeruginosa, PAO1; Organism No. 17, bouillon-agar; read-out: Minimum Inhibitory Concentration
Text: as §1

[16] = tested on: Proteus morganii IFO 3848; experiment: Antibacterial activity, agar-dilution MIC, organism No. 18; details: Morganella morganii, IFO3848; Organism No. 18, bouillon-agar; read-out: Minimum Inhibitory Concentration
Text: as §1

[17] = tested on: Proteus mirabilis IFO 3849; experiment: Antibacterial activity, agar-dilution MIC, organism No. 19; details: Proteus mirabilis, IFO3849; Organism No. 19, bouillon-agar; read-out: Minimum Inhibitory Concentration
Text: as §1

Proteus vulgaris OX-19 = experiment: Antibacterial activity, agar-dilution MIC, organism No. 20; details: Proteus vulgaris, OX19; Organism No. 20, bouillon-agar; read-out: Minimum Inhibitory Concentration
Text: as §1

Proteus vulgaris HX-19 = experiment: Antibacterial activity, agar-dilution MIC, organism No. 21; details: Proteus vulgaris, HX19; Organism No. 21, bouillon-agar; read-out: Minimum Inhibitory Concentration
Text: as §1

[18] = tested on: Proteus rettgeri IFO 3850; experiment: Antibacterial activity, agar-dilution MIC, organism No. 22; details: Providencia rettgeri, IFO3850; Organism No. 22, bouillon-agar; read-out: Minimum Inhibitory Concentration
Text: as §1

[19] = tested on: Enterobacter aerogenes ATCC 13048; experiment: Antibacterial activity, agar-dilution MIC, organism No. 23; details: Klebsiella aerogenes, ATCC13048; Organism No. 23, bouillon-agar; read-out: Minimum Inhibitory Concentration
Text: as §1

Enterobacter cloacae 963 = experiment: Antibacterial activity, agar-dilution MIC, organism No. 24; details: Enterobacter cloacae, 963; Organism No. 24, bouillon-agar; read-out: Minimum Inhibitory Concentration
Text: as §1

[20] = tested on: Micrococcus luteus ATCC 9341; experiment: Antibacterial activity, agar-dilution MIC, organism No. 25; details: Micrococcus luteus, ATCC9341; Organism No. 25, bouillon-agar; read-out: Minimum Inhibitory Concentration
Text: as §1

[21] = tested on: Streptococcus pyogenes IFO 3340; experiment: Antibacterial activity, agar-dilution MIC, organism No. 26; details: Streptococcus pyogenes, IFO3340; Organism No. 26, bouillon-agar; read-out: Minimum Inhibitory Concentration
Text: as §1

[22] = tested on: Streptococcus faecium IFO 3826; experiment: Antibacterial activity, agar-dilution MIC, organism No. 27; details: Enterococcus faecium, IFO3826; Organism No. 27, bouillon-agar; read-out: Minimum Inhibitory Concentration
Text: as §1

[23] = tested on: Mycoplasma pneumoniae IID817; experiment: Antimycoplasmal activity, MIC by phenol red colour change, organism No. 28; details: Mycoplasma, IID817; Organism No. 28, PPLO broth + 1% glucose, 37° C.; read-out: Minimum Inhibitory Concentration (MIC)
Protocol: Mycoplasma pneumoniae IID817 was used as the test microorganism in a culture medium prepared by adding 1% of glucose to "PPLO broth (manufactured by Difco Co.) liquid culture medium" at 37° C. with phenol red as an indicator, thereby culturing the test microorganism.

[24] = tested on: Candida albicans IAM 4905; experiment: Antifungal activity, agar-dilution MIC, organism No. 29; details: Candida albicans, IAM4905; Organism No. 29, bouillon-agar; read-out: Minimum Inhibitory Concentration
Text: as §1

[25] = tested on: Aspergillus niger IFO 6342; experiment: Antifungal activity, agar-dilution MIC, organism No. 30; details: Aspergillus niger, IFO6342; Organism No. 30, bouillon-agar; read-out: Minimum Inhibitory Concentration
Text: as §1

SMILES | MIC [1] [µg/mL] | MIC [2] [µg/mL] | MIC [3] [µg/mL] | MIC [4] [µg/mL] | MIC [5] [µg/mL] | MIC [6] [µg/mL] | MIC [7] [µg/mL] | MIC [8] [µg/mL] | MIC (Salmonella typhi 901) [µg/mL] | MIC [9] [µg/mL] | MIC [10] [µg/mL] | MIC [11] [µg/mL] | MIC [12] [µg/mL] | MIC [13] [µg/mL] | MIC [14] [µg/mL] | MIC [15] [µg/mL] | MIC [16] [µg/mL] | MIC [17] [µg/mL] | MIC (Proteus vulgaris OX-19) [µg/mL] | MIC (Proteus vulgaris HX-19) [µg/mL] | further results
[C-]#[N+]C12CC3(/C=C/C(=O)Nc4cccc(C)c4)OC3C1O2 (centres unmarked) [compound 38] | < 0.05 | 0.1 (≈ 0.354 µM) | < 0.05 | 6.25 (≈ 22.1 µM) | 12.5 (≈ 44.3 µM) | 12.5 (≈ 44.3 µM) | < 0.05 | 6.25 (≈ 22.1 µM) | 1.56 (≈ 5.53 µM) | < 0.05 | < 0.05 | 1.56 (≈ 5.53 µM) | 3.13 (≈ 11.1 µM) | > 200 | > 200 | > 200 | 12.5 (≈ 44.3 µM) | > 200 | 0.05 (≈ 0.177 µM) | 0.05 (≈ 0.177 µM) | MIC [18]: 3.13 µg/mL (≈ 11.1 µM); MIC [19]: > 200 µg/mL; MIC (Enterobacter cloacae 963): > 200 µg/mL; MIC [20]: < 0.05 µg/mL; MIC [21]: 0.39 µg/mL (≈ 1.38 µM); MIC [22]: 12.5 µg/mL (≈ 44.3 µM); MIC [23]: < 0.2 µg/mL; MIC [24]: 0.78 µg/mL (≈ 2.76 µM); MIC [25]: 1.56 µg/mL (≈ 5.53 µM)
[C-]#[N+]C12CC3(/C=C/C(=O)N[C@@H](CCC(=O)OCc4ccccc4)C(=O)OCc4ccccc4)OC3C1O2 (some centres unmarked) [Compound No. 28] | 12.5 (≈ 24.9 µM) | 12.5 (≈ 24.9 µM) | 12.5 (≈ 24.9 µM) | > 200 | > 200 | > 200 | > 200 | > 200 | > 200 | > 200 | > 200 | > 200 | < 1.56 | > 200 | > 200 | > 200 | > 200 | > 200 | > 200 | 25 (≈ 49.7 µM) | MIC [18]: > 200 µg/mL; MIC [19]: > 200 µg/mL; MIC (Enterobacter cloacae 963): > 200 µg/mL; MIC [20]: < 1.56 µg/mL; MIC [21]: > 200 µg/mL; MIC [22]: 0.5 µg/mL (≈ 0.995 µM); MIC [23]: > 100 µg/mL; MIC [24]: > 100 µg/mL; MIC [25]: > 100 µg/mL
[C-]#[N+]C12CC3(/C=C/C(=O)Nc4ccc(Cl)cc4)OC3C1O2 (centres unmarked) [compound 40] | < 0.05 | 0.1 (≈ 0.33 µM) | < 0.05 | 200 (≈ 661 µM) | > 200 | > 200 | < 0.05 | 12.5 (≈ 41.3 µM) | 0.39 (≈ 1.29 µM) | 0.1 (≈ 0.33 µM) | 0.1 (≈ 0.33 µM) | 3.13 (≈ 10.3 µM) | 6.25 (≈ 20.6 µM) | > 200 | > 200 | > 200 | 3.13 (≈ 10.3 µM) | > 200 | 0.1 (≈ 0.33 µM) | < 0.05 | MIC [18]: 6.25 µg/mL (≈ 20.6 µM); MIC [19]: > 200 µg/mL; MIC (Enterobacter cloacae 963): 200 µg/mL (≈ 661 µM); MIC [20]: < 0.05 µg/mL; MIC [21]: 0.39 µg/mL (≈ 1.29 µM); MIC [22]: > 200 µg/mL; MIC [23]: < 0.2 µg/mL; MIC [24]: 0.39 µg/mL (≈ 1.29 µM); MIC [25]: 1.56 µg/mL (≈ 5.15 µM)
[C-]#[N+]C12CC3(/C=C/C(=O)Nc4ccccc4C)OC3C1O2 (centres unmarked) [compound 39] | 0.78 (≈ 2.76 µM) | 3.13 (≈ 11.1 µM) | 1.56 (≈ 5.53 µM) | 100 (≈ 354 µM) | > 200 | > 200 | 1.56 (≈ 5.53 µM) | > 200 | 25 (≈ 88.6 µM) | 12.5 (≈ 44.3 µM) | 3.13 (≈ 11.1 µM) | 50 (≈ 177 µM) | > 200 | > 200 | > 200 | > 200 | 100 (≈ 354 µM) | > 200 | 6.25 (≈ 22.1 µM) | < 0.05 | MIC [18]: > 200 µg/mL; MIC [19]: > 200 µg/mL; MIC (Enterobacter cloacae 963): 200 µg/mL (≈ 708 µM); MIC [20]: < 0.05 µg/mL; MIC [21]: 25 µg/mL (≈ 88.6 µM); MIC [22]: 200 µg/mL (≈ 708 µM); MIC [23]: < 0.2 µg/mL; MIC [24]: 0.39 µg/mL (≈ 1.38 µM); MIC [25]: 1.56 µg/mL (≈ 5.53 µM)
